Experimental data from US5422344A, “Method of treating retroviral infections in mammals” (The United States of America as represented by the …, priority 1990, dated 1995).
Read-outs that look alike come from different tables or passages of the source.

How the values were obtained:
HIV p24 antigen = assay: Western blot analysis of HIV p24 antigen after HIV infection and CPT treatment; assay type: cell-based, HIV-1; details: 7 days post-infection
Description: A. H9 cells were infected as described in Table 1 and the text. Virus was pelleted from culture supernatants 7 days after infection. The viral pellets were resuspended, lysed, and the proteins separated and transferred as described in the Examples. The blot was analyzed using an HIV p24 specific monoclonal antibody (S. Showalter and M. Zweig, unpublished), and visualized using the Bio-Rad immunogold kit. Lane 1: virus from untreated infected cells; lane 2: virus from cells treated with 0.005 μM CPT for the first 18 h after infection.
B. Extracts of HIV-infected cells (7 days post-infection) were prepared and analyzed as described in the Examples using an HIV p24 specific monoclonal antibody (S. Showalter and M. Zweig, unpublished). Blots were visualized using the Bio-Rad immunogold kit. Lane 1: untreated infected cells; lane 2: 0.2 μM CPT; lane 3: 0.1 μM CPT; lane 4: 0.05 μM CPT; lane 5: 0.02 μM CPT; lane 6: 0.01 μM CPT; lane 7: 0.005 μM CPT. […]
The culture media from cells subjected to different treatments was prepared by centrifugation (200xg, 10 min) to remove whole cells and debris, the viral particles were subsequently pelleted (35,000 rpm, 11/2h), and the viral pellet was resuspended in 100 μl of RIPA buffer (50 mM Tris-HC1, pH 7.5; 0.5M NaHPO4, 0.5% NP40, 0.25% Na-deoxycholate, 0.1% SDS). […] Protein concentration was determined using the Bio-Rad protein assay. […]

Moloney MuLV = Moloney MuLV replication in vitro; assay type: cell-based, Moloney murine leukemia virus
mammalian cells = details: cytotoxic doses, Wall et al., cited from earlier work
HIV = assay: Virus production in chronically HIV-infected cells; assay type: cell-based; details: non-cytotoxic doses; preliminary evidence
[1] = tested on: Simian Virus 40 DNA replication; details: Snapka 1986; cited from earlier work
[2] = tested on: lentivirus-associated topoisomerase; assay: Inhibition of lentivirus-associated topoisomerase activity; assay type: biochemical, HIV and EIAV
[3] = tested on: experimental tumors and human colon cancer; details: cited from earlier work
[4] = tested on: HIV-IIIB (HIV-1) replication in H9 cells; assay: HIV replication in cocultivation of H9/HIV-IIIB chronically infected cells with H9 cells; assay type: cell-based
Description: 10 H9/HIV-IIIB (A,D), 100 H9/HIV-IIIB (B,E) or 1000 H9/HIV-IIIB cells (C,F) were cocultivated with 10^5 H9 cells in the presence or absence of 0.01 μM (A,B), 0.2 μM (C) , 0.005 μM (D,E), or 0,005-0.01 μM (F) of CPT for 1 h (A,B,C) or 18h (D,E,F). RT activity was measured in the culture media 7,8, and 9 days post-infection and treatment.
Cocultivation of H9/HIV-IIIB Cells with Uninfected H9 Cells and CPT Treatment: Ten, 100 or 1,000 H9/HIV-IIIB cells were cocultivated with 10^5 H9 cells in the presence or absence of different CPT doses. Cells were incubated for 1 h at 37° C., pelleted, washed and resuspended in fresh media. RT activity in the culture media was measured seven, eight, and nine days after infections, as described above.
For a longer treatment period, H9/HIV-IIIB cells were cocultivated with H9 cells in the presence or absence of 0.005-0.01 μM CPT for 18 h at 37° C.
CPT Inhibition of HIV Replication in Cocultivation of H9/HIV-IIIB Chronically Infected Cells with H9 Uninfected Cells. Since it is likely that HIV infection in vivo involves cell to cell contact and virus production by previously infected cells, the ability of CPT to block the spread of HIV in uninfected H9 cells cocultivated with cells chronically infected with HIV was examined. The results shown in FIG. 2A indicate that 100% inhibition of HIV replication was observed when 10 infected cells were mixed with uninfected cells in the presence of 0.01 μM CPT for 1 h. […] However, increasing the CPT dose to 0.2 μM reduced HIV replication to 15% of control values when 1000 infected cells were mixed with 10^5 uninfected H9 cells (FIG. 2C).

eukaryotic topo I = details: Gupta et al. 1988; cited from earlier work
viral associated topo I = assay: Inhibition of viral associated topo I activity; assay type: biochemical
H9 cells = assay: Cell number, viability (trypan blue dye exclusion) and growth of H9 cells; assay type: cell-based; details: for Cell No.: 7 days postinfection
[5] = as above; assay type: cell-based; details: human, h9 cells

CC[C@@]1(O)C(=O)OCc2c1cc1n(c2=O)Cc2cc3ccccc3nc2-1 [CPT, Camptothecin]
p24 in culture media (HIV p24 antigen; 0.005 μM CPT for first 18 h (FIG. 1A)): could not be detected in the culture media | p24 in cell extracts (HIV p24 antigen; 0.005-0.2 μM CPT, 1 h (FIG. 1B)): could not be detected in extracts | inhibiting the initiation of infection by Moloney MuLV (Moloney MuLV; cell culture): has been demonstrated | Moloney MuLV replication (Moloney MuLV; in vitro): inhibits Moloney MuLV replication in vitro | fragmentation of DNA (mammalian cells; mammalian cells): causes rapid and reversible fragmentation of DNA in mammalian cells | RNA and DNA synthesis (mammalian cells): inhibits RNA and DNA synthesis | virus production in chronically HIV-infected cells (HIV): virus production is suppressed | Simian Virus 40 DNA replication [1]: selectively interferes with Simian Virus 40 DNA replication | lentivirus-associated topoisomerase activity [2]: inhibited this activity | antitumor activity [3]: strong antitumor activity | activity at 0.2 µM ([4]; Human immunodeficiency virus 1, IIIB, H9, 1 h, read-out: HIV replication reduced to % of control values): 15% | inhibition at 0.01 µM ([4]; Human immunodeficiency virus 1, IIIB, H9, 1 h, read-out: inhibition of HIV replication, 10 infected cells, 0.01 μM CPT, 1 h): 100% | inhibition at 0.01 µM ([4]; Human immunodeficiency virus 1, IIIB, H9, 1 h, read-out: inhibition of HIV replication, 100 infected cells, 0.01 μM CPT, 1 h): 50% | inhibition at 0.01 µM ([4]; Human immunodeficiency virus 1, IIIB, H9, 1 h, read-out: inhibition of HIV replication, 1000 infected cells, 0.01 μM CPT, 1 h (data not shown)): 13% | inhibition at 0.005 µM ([4]; Human immunodeficiency virus 1, IIIB, H9, 18 h, read-out: inhibition of HIV replication (RT activity), 10 or 100 infected cells, 0.005 μM CPT, 18 h, days 7, 8 and 9): 98 to 100% | inhibitory effect on HIV replication ([4]; larger numbers of infected cells, 0.2 μM CPT, or 0.005 μM for 18h): strong inhibitory effect on HIV replication | inhibition of eukaryotic topo I (eukaryotic topo I): known specific inhibitor of eukaryotic topo I | viral associated topo I activity (viral associated topo I): inhibited | Cell No. (H9 cells; 0.005 μM CPT): 2 × 10^6 | Cell No. (H9 cells; 0.01 μM CPT): 2.2 × 10^6 | Cell No. (H9 cells; 0.02 μM CPT): 4 × 10^5 | Cell No. (H9 cells; 0.05 μM CPT): 1 × 10^5 | Cell No. (H9 cells; 0.1 μM CPT): 1 × 10^5 | Cell No. (H9 cells; 0.2 μM CPT): 1 × 10^5 | effect on cell viability or cell growth (H9 cells; 0.005-0.02 μM CPT): no effect on cell viability or cell growth was detected | effect on cell growth (H9 cells; 0.05-0.2 μM CPT): cell growth was arrested | effect on cell viability (H9 cells; 0.05-0.2 μM CPT, trypan blue dye exclusion): no effect on cell viability was detected | viability at 168 h, 0.005 µM ([5]; 0.005 μM CPT, 7 days postinfection): 100% | viability at 168 h, 0.01 µM ([5]; 0.01 μM CPT, 7 days postinfection): 100% | viability at 168 h, 0.02 µM ([5]; 0.02 μM CPT, 7 days postinfection): 100% | viability at 168 h, 0.05 µM ([5]; 0.05 μM CPT, 7 days postinfection): 100% | viability at 168 h, 0.1 µM ([5]; 0.1 μM CPT, 7 days postinfection): 100% | viability at 168 h, 0.2 µM ([5]; 0.2 μM CPT, 7 days postinfection): 100% | selectivity ratio ([5]; data not shown, read-out: anti-HIV doses vs cytotoxic doses (times lower)): 400
